Experimental findings from ChEMBL document CHEMBL5653631, “A Potent and Selective ULK1 Inhibitor Suppresses Autophagy and Sensitizes Cancer Cells to Nutrient Stress” (iScience, 2018) are described below.

Test [1] has as its target Mitogen-activated protein kinase kinase kinase kinase 4 (Homo sapiens) (UniProt O95819). Put plainly: Inhibition of human recombinant HGK at 15 nM related to control ULK1.
The target of test [2] is Ephrin type-A receptor 5 (Homo sapiens) (UniProt P54756). Put plainly: Inhibition of human recombinant EphA5 at 15 nM in presence of ATP by radiometric assay relative to control.
For test [3], the target named is T1, Protein kinase C zeta type (Homo sapiens) (UniProt Q05513).
T1 sequence (whole entry): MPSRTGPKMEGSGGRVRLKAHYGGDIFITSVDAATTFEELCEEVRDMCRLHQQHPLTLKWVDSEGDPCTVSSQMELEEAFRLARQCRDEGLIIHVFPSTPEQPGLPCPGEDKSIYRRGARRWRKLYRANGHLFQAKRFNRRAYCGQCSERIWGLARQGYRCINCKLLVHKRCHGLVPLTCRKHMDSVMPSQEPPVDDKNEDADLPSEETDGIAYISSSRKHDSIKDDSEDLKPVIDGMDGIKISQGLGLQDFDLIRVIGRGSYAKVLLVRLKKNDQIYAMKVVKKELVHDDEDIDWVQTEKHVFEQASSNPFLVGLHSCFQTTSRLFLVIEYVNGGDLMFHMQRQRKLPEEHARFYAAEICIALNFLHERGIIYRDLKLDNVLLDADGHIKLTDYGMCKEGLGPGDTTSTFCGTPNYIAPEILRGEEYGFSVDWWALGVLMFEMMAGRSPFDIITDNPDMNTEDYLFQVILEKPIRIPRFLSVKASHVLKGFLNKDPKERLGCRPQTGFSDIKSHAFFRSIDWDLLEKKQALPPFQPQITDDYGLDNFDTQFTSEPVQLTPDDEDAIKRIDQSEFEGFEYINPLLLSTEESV
Kind of test: Inhibition of human recombinant PKCz at 40 nM related to control ULK1.

Test [4] addresses T2, Bone morphogenetic protein receptor type-2 (Homo sapiens) (UniProt Q13873).
T2 sequence (whole entry): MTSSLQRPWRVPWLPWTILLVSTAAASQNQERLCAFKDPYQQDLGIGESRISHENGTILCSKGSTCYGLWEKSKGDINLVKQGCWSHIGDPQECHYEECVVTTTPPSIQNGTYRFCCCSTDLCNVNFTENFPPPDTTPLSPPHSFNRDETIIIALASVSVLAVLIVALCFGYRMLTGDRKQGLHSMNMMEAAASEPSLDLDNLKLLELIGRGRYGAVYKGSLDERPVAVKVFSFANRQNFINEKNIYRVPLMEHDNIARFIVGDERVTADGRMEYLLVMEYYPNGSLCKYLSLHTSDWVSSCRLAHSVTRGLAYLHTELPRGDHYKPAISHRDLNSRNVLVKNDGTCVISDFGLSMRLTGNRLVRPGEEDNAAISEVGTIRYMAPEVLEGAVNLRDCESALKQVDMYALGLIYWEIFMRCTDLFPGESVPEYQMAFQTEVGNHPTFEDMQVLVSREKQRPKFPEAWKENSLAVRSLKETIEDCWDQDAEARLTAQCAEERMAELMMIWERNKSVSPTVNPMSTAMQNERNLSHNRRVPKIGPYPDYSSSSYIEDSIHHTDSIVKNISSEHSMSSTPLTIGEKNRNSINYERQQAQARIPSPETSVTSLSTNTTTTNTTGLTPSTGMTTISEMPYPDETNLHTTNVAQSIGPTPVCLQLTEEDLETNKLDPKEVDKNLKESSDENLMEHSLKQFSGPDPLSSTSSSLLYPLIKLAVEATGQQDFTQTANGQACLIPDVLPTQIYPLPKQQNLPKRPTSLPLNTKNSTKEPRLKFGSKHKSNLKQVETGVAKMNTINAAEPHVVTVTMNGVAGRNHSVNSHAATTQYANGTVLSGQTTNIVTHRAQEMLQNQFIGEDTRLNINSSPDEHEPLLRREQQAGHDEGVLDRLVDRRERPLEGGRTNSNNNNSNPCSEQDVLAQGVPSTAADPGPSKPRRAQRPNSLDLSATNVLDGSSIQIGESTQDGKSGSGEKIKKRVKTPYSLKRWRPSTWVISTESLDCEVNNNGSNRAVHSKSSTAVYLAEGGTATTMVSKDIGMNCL
Kind of test: Inhibition of human recombinant BMPR2 at 40 nM related to control ULK1.

The target of test [5] is Casein kinase I isoform gamma-1 (Homo sapiens) (UniProt Q9HCP0). Kind of test: Inhibition of human recombinant CK1g1 at 40 nM in presence of ATP by radiometric assay relative to control.
Test [6] deals with Hepatocyte growth factor receptor (Homo sapiens) (UniProt P08581). Put plainly: Inhibition of human recombinant MET at 500 nM in presence of ATP by radiometric assay relative to control.
The target in test [7] is T3, Cytoplasmic tyrosine-protein kinase BMX (Homo sapiens) (UniProt P51813).
T3 sequence (whole entry): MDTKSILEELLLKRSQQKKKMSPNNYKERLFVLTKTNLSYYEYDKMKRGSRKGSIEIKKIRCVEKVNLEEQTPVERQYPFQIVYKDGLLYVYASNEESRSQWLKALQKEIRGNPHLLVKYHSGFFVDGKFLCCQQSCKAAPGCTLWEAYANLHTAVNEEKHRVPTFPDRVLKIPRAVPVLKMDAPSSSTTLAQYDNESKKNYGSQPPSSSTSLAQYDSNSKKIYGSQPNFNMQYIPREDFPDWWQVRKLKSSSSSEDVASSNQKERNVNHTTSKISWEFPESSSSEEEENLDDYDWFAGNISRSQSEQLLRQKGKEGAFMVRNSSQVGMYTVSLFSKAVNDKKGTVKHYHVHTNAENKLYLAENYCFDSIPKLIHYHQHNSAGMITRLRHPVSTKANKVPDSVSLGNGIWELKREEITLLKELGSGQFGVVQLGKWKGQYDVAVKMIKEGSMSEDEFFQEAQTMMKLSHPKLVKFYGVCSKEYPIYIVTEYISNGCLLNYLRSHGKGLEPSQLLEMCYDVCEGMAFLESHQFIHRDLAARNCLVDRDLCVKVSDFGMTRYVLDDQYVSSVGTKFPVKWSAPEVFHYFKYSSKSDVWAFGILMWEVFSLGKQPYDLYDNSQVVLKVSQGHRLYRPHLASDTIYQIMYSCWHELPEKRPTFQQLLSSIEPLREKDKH
Kind of test: Inhibition of human recombinant BMX at 500 nM related to control ULK1.

Chain of Casein kinase I isoform gamma-1 (Homo sapiens) (Q9HCP0 whole entry, looked up, canonical isoform): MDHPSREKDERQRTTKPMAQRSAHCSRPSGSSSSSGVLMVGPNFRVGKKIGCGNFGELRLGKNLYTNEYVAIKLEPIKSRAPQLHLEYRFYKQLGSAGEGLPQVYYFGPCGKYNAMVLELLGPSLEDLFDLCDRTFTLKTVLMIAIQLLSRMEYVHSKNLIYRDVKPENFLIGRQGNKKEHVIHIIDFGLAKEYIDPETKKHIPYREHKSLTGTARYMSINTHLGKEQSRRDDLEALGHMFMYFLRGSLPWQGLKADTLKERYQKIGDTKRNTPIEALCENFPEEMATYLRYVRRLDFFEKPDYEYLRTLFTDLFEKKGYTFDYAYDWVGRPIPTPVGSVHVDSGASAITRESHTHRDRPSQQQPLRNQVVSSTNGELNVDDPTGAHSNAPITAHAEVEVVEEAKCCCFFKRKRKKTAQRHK
Chain of Mitogen-activated protein kinase kinase kinase kinase 4 (Homo sapiens) (O95819 2-1239 limits assumed): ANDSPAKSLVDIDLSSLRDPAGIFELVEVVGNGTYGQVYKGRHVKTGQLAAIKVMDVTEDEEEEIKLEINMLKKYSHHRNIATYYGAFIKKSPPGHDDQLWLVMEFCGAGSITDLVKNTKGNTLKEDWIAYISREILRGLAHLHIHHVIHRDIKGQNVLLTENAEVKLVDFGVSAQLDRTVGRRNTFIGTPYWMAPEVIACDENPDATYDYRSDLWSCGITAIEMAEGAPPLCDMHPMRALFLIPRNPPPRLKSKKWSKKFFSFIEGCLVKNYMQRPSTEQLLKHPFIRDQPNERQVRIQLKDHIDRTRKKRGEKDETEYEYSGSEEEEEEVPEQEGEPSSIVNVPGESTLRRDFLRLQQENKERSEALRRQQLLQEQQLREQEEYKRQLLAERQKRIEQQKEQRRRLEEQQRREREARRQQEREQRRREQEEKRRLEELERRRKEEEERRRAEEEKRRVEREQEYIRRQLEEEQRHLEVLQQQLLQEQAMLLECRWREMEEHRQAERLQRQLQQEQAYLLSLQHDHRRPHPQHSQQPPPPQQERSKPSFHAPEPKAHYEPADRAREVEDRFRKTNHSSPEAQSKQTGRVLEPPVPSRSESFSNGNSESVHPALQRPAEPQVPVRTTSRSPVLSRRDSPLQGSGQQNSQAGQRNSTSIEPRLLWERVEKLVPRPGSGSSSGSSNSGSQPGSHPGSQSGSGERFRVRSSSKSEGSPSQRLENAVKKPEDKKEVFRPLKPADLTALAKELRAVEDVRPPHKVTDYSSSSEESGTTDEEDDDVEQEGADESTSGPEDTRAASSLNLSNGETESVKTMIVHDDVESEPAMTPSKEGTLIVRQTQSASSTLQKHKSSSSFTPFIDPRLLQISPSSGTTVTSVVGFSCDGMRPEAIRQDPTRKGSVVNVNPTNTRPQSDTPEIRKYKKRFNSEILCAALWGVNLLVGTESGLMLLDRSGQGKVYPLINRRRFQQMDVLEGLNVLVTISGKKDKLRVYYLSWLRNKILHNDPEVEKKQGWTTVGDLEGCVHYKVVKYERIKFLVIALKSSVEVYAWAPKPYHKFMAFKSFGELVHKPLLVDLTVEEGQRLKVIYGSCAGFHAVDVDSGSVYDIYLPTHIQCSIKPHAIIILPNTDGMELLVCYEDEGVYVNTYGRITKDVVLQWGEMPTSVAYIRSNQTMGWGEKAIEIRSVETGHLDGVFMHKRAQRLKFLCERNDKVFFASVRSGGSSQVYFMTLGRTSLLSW
Chain of Ephrin type-A receptor 5 (Homo sapiens) (P54756 whole entry): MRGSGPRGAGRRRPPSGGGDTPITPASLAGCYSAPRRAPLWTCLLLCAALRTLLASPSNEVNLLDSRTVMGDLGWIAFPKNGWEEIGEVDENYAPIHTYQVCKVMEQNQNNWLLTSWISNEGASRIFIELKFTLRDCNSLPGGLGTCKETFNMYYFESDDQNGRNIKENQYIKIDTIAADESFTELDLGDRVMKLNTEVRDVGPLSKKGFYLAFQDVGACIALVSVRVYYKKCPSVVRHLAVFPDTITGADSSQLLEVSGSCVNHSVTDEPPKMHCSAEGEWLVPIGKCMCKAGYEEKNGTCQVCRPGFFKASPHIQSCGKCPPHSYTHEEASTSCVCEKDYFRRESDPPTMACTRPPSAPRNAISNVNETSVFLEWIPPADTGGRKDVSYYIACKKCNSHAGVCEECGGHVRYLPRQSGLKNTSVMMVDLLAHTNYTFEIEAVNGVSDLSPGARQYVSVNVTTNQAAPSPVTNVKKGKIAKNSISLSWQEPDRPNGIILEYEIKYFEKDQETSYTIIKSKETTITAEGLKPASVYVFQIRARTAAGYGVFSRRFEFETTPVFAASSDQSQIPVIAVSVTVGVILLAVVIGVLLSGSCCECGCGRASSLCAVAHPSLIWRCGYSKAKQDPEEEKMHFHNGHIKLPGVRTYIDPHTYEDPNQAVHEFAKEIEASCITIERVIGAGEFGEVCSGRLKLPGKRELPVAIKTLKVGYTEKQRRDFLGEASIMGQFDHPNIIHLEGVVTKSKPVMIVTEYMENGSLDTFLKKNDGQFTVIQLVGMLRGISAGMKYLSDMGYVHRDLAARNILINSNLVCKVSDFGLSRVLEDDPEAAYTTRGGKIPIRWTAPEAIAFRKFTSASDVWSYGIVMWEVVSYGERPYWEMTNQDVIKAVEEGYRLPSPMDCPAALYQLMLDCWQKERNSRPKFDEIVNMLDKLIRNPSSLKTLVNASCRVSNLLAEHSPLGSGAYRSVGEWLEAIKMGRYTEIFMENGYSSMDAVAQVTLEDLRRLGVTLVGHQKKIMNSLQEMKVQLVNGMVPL
Chain of Hepatocyte growth factor receptor (Homo sapiens) (P08581 whole entry, looked up): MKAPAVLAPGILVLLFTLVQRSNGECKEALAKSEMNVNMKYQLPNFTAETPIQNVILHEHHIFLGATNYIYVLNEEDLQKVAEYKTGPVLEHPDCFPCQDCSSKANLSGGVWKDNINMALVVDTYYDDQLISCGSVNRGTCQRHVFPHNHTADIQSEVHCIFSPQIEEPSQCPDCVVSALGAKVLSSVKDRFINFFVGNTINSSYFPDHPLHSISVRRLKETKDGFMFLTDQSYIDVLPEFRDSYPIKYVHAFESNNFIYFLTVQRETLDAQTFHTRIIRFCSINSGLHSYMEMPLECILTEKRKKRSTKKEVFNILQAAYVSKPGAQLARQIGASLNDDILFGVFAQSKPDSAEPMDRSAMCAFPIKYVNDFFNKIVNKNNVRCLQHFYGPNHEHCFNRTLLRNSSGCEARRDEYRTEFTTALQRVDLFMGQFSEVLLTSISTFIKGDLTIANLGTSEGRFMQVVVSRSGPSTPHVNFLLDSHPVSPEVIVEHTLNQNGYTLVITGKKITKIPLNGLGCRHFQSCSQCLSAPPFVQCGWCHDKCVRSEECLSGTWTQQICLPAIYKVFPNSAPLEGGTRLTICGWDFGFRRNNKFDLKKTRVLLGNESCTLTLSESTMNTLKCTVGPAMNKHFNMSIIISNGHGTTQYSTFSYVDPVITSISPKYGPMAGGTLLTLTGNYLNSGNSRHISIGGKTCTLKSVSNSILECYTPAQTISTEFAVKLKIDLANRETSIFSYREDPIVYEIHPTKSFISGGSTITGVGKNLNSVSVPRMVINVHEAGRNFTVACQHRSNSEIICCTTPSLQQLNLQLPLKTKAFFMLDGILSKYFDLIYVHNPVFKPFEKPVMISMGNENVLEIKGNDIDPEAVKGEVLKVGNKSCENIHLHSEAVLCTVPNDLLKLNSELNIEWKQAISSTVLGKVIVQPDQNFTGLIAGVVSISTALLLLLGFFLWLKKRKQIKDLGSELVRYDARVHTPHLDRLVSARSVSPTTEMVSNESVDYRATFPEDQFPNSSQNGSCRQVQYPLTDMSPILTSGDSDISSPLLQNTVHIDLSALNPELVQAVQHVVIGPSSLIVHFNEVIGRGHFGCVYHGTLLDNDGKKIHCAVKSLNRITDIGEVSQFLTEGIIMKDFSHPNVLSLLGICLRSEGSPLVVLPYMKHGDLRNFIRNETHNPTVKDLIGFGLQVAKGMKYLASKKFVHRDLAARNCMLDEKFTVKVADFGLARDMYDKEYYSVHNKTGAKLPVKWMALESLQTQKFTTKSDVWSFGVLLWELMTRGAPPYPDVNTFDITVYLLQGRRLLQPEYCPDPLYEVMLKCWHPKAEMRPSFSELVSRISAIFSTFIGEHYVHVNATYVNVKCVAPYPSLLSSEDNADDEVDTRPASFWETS

On to `CC(C)[C@H](NC(=O)c1cc(-c2cnn3cc(-c4ccc(OCCN5CCCCC5)cc4)cnc23)cs1)C(F)(F)F`, for which the fold change (FC) in test [1] came out at 0. The inhibition (usually the share of the control response that was lost under treatment) in test [2] is 0%.
`O=C(N[C@@H](C1CC1)C(F)(F)F)c1cc(-c2cnn3cc(-c4ccc(F)cc4)cnc23)cs1`: the fold change (FC) in test [3] stood at 0; in test [4], 0.08. Besides, the inhibition in test [5] turned out to be 0%.
Turning to `CNC(=O)c1ccccc1Oc1nc(Nc2cc(OC)c(OC)c(OC)c2)ncc1Br`, the inhibition in test [6] is 32%. Besides, the fold change (FC) in test [7] came to 0.22.
